In PubChem BioAssay (NCI):
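Dose response: 5 concentrations. Exposure: 48 h. Format: 96-well plates. Endpoint: linear interpolation; highest concentration if not reached. TGI: total growth inhibition.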

Columns and labels:
Assay in all cases: inhibition of tumour cell growth, NCI panel, 48 h
CCRF-CEM leukemia = tested on: CCRF-CEM leukemia
HCT-15 colon = tested on: HCT-15 colon
HOP-92 NSCLC = tested on: HOP-92 NSCLC
HS 578T breast = tested on: HS 578T breast
K-562 leukemia = tested on: K-562 leukemia
LOX IMVI melanoma = tested on: LOX IMVI melanoma
M14 melanoma = tested on: M14 melanoma
MALME-3M melanoma = tested on: MALME-3M melanoma
MCF7 breast = tested on: MCF7 breast
MDA-MB-231 breast = tested on: MDA-MB-231 breast
NCI-H226 lung = tested on: NCI-H226 lung
NCI-H522 lung = tested on: NCI-H522 lung
NCI/ADR-RES ovarian = tested on: NCI/ADR-RES ovarian
SK-OV-3 ovarian = tested on: SK-OV-3 ovarian
SN12C renal = tested on: SN12C renal
SW-620 colon = tested on: SW-620 colon
U251 CNS = tested on: U251 CNS
UACC-257 melanoma = tested on: UACC-257 melanoma
UO-31 renal = tested on: UO-31 renal
OVCAR-3 ovarian = tested on: OVCAR-3 ovarian

Structure (SMILES)	TGI (CCRF-CEM leukemia) [µM]	TGI (HCT-15 colon) [µM]	TGI (HOP-92 NSCLC) [µM]	TGI (HS 578T breast) [µM]	TGI (K-562 leukemia) [µM]	TGI (LOX IMVI melanoma) [µM]	TGI (M14 melanoma) [µM]	TGI (MALME-3M melanoma) [µM]	TGI (MCF7 breast) [µM]	TGI (MDA-MB-231 breast) [µM]	TGI (NCI-H226 lung) [µM]	TGI (NCI-H522 lung) [µM]	TGI (NCI/ADR-RES ovarian) [µM]	TGI (SK-OV-3 ovarian) [µM]	TGI (SN12C renal) [µM]	TGI (SW-620 colon) [µM]	TGI (U251 CNS) [µM]	TGI (UACC-257 melanoma) [µM]	TGI (UO-31 renal) [µM]	TGI (OVCAR-3 ovarian) [µM]
CCN(CCCl)c1cc(CN(C)C)cc(NC(=O)C23CCC(C(=O)Nc4cc(CN(C)C)cc(N(CC)CCCl)c4)(CC2)CC3)c1	1.17	26.4	5.06	2.53	4.73	1.57	14.8	3.21	2.01	26.6	4	1.47	> 100	4.24	2.39	1.65	11	15.5	30.9	–
Oc1c(Br)cc(/C=C/c2cccc(/C=C/c3cc(Br)c(O)c(Br)c3)n2)cc1Br	–	26.3	29.6	66.9	23.7	28.8	34.9	–	42.5	49.4	–	–	85.6	62.9	24.3	50.6	21.2	37.2	28.4	31.1
C#Cc1cc(Br)c(OC(=O)C(C)(C)C)c(-c2cc(C#C)cc(Br)c2OC(=O)C(C)(C)C)c1	36.1	> 100	> 100	> 100	> 100	49.1	> 100	> 100	> 100	> 100	–	> 100	> 100	> 100	> 100	> 100	> 100	> 100	–	> 100
COc1cc2c(cc1OC)CC1c3cc(OC)c(OC)cc3CCN1CC2 (centres undefined)	> 100	> 100	> 100	> 100	> 100	–	> 100	–	> 100	> 100	> 100	> 100	> 100	> 100	> 100	> 100	> 100	> 100	> 100	> 100
O=C1/C(=C/c2ccc(Oc3ccccc3)cc2)N=C(c2ccccc2)N1c1ccc(S(=O)(=O)Nc2nccs2)cc1	> 100	70.1	99.7	> 100	> 100	70.5	72.3	86.6	38	> 100	> 100	–	46.6	> 100	> 100	> 100	> 100	92.5	78.2	> 100
CCOC(=O)c1c(C)n([O-])c2cc(Cl)c(Cl)cc2[n+]1=O	45.9	37.2	33.2	58.3	> 100	38.4	43.9	–	> 100	51.3	33.5	–	66.6	85.9	51.9	–	> 100	44.5	67.1	37.1
CCCCCCCCCCCCCCCCOP(=O)(O)OCC(NC(C)=O)C(=O)O (centres undefined)	–	34.3	> 100	> 100	> 100	> 100	> 100	> 100	> 100	93.2	> 100	> 100	> 100	> 100	> 100	> 100	40.8	> 100	> 100	> 100
Cc1ccc(OCC2OC(n3cnc4c(Cl)nc(Cl)nc43)CC2Oc2ccc(C)cc2)cc1 (centres undefined)	> 100	3.27	6.4	5.21	–	3.61	3.99	5.13	4.01	3.99	14.3	3.82	4.37	35.9	17.9	> 100	4.91	6.59	–	6
CC(=O)OC[C@@]12Cc3ccc(C)c(O)c3[C@]1(C)[C@@H](OC(C)=O)[C@]1(O)[C@H]([C@@H](OC(=O)c3ccccc3)[C@@H](C)[C@H]1OC(C)=O)[C@H]2OC(C)=O	> 50	> 50	> 50	> 50	> 50	> 50	> 50	–	> 50	> 50	> 50	> 50	> 50	> 50	> 50	> 50	> 50	> 50	> 50	> 50
CC(NC(=O)c1ccc(NP(=O)(OCc2ccc([N+](=O)[O-])o2)N(C)CCCCCl)cc1)c1ccc(OCC2CCCCC2)c(C(N)=O)c1 (centres undefined)	16.5	> 100	20.6	42.9	83.2	27	–	–	18.3	35	45.1	34.2	> 100	78.3	47.5	86.8	49.9	26.6	> 100	33.9
N=CN=CC(=S)O[C@@H]1C(=O)N2CCC[C@@]23CCCC[C@@H]13	> 12.5	> 12.5	–	> 12.5	> 12.5	> 12.5	> 12.5	> 12.5	> 12.5	> 12.5	> 12.5	> 12.5	> 12.5	> 12.5	> 12.5	–	> 12.5	> 12.5	> 12.5	–
COC(=O)C1Cc2ccc3c(c2C1=O)CCCC3 (centres undefined)	> 100	> 100	–	> 100	> 100	> 100	> 100	> 100	> 100	> 100	> 100	> 100	> 100	> 100	> 100	> 100	> 100	> 100	> 100	> 100
COc1ccc(N=NC(=Nc2ccc(Cl)cc2)c2ccc(N(CCC#N)CCC#N)cc2)cc1	–	> 100	93	> 100	> 100	–	> 100	–	> 100	> 100	> 100	45.3	> 100	> 100	> 100	> 100	> 100	64.7	> 100	> 100
